According to US9353082B2, “Pharmaceutical compounds” (BIAL—PORTELA & CA, S.A., priority 2008, dated 2016):

Experiments:
[1] = biological target: T1, FAAH (Rattus norvegicus, UniProt P97612); test: In vitro FAAH activity in rat brain membranes, 3H-AEA substrate, % of control; assay type: biochemical, Wistar rats; settings: low value = strong inhibitor; for FAAH 100 nM: 100 nM compound; for In Vitro FAAH activity, 100 nM: 100 nM test compound
T1 construct: Frozen brains (without cerebellum) from Wistar rats were used; from tissue; host or cells: Wistar rat brain (without cerebellum), washed membrane pellets
T1 sequence (P97612 1-579): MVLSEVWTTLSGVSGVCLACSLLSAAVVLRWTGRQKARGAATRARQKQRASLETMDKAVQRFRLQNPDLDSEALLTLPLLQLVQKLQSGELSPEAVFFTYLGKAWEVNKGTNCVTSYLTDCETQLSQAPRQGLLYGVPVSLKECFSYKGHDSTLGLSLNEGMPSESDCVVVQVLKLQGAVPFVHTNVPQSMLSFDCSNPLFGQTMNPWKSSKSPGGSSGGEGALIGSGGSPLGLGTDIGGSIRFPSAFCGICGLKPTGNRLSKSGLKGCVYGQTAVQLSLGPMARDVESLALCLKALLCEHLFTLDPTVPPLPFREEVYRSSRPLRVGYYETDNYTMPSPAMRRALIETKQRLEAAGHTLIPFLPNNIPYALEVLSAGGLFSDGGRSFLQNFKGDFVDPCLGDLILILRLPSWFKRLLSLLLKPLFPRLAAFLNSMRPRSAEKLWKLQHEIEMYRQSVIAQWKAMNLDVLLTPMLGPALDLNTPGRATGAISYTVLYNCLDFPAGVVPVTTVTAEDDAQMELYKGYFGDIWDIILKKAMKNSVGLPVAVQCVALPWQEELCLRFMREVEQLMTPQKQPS
In short: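 Wistar rat brain membranes (5 μg protein) preincubated 15 min at 37 °C with compound at 10 μM or 0.1 μM (0.1% DMSO), then 2 μM AEA including 3H-AEA with 0.1% BSA, Tris pH 7.6, 10 min. 3H-ethanolamine counted after charcoal stop; % of no-compound control after blank subtraction.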

[2] = system: carboxylesterase (CE); test: Carboxylesterase (CE) activity in mouse liver microsomes (LVms), p-nitrophenyl acetate; assay type: biochemical; settings: 10 uM compound, read 10 min after substrate, remaining CE activity
Experimental: (§1) FAAH inhibition was determined as described above. Inhibition of monoacylglycerol lipase (MAGL) and carboxylesterase (CE) was performed according to the protocols described below. The controls for both in vitro and in vivo were the reaction mix minus the test compounds. Therefore, a low value in Table 2 below for the test compounds indicates a strong inhibitor.
(§2) CE activity measurement is based on the formation of p-nitrophenol from p-nitrophenyl acetate. Briefly, in 96-well plates 8 μg/ml of rat or mouse liver microsomes (LVms) were incubated with 10 μM FAAH inhibitors for 15 min and then the substrate, p-nitrophenyl acetate, was added to a final concentration of 1 mM. The plate was read at 405 nm 10 min after substrate addition for the appearance of p-nitrophenol using a spectrophotometer. The carboxylesterase activity in microsome extracts without inhibitor added were set at 100% as control and the remaining CE activities after incubation with inhibitors were calculated relative to the control.

[3] = system: carboxylesterase (CE); test: Carboxylesterase (CE) activity in rat liver microsomes (LVms), p-nitrophenyl acetate; assay type: biochemical; settings: 10 uM compound, read 10 min after substrate, remaining CE activity
Experimental: as §1, §2

[4] = biological target: T2, monoacylglycerol lipase (MAGL) (Rattus norvegicus, UniProt Q8R431); test: MAGL activity in rat cerebella cytosol (CRBcyt), hydrolysis of [3H] 2-OG; assay type: biochemical, WISTAR rats; settings: 12.5 uM compound, remaining MAGL activity
T2 construct: cerebella cytosol (CRBcyt) fractions, previously obtained from adult WISTAR rats; from tissue; host or cells: adult Wistar rat cerebella, cytosol fraction
T2 sequence (Q8R431 1-303): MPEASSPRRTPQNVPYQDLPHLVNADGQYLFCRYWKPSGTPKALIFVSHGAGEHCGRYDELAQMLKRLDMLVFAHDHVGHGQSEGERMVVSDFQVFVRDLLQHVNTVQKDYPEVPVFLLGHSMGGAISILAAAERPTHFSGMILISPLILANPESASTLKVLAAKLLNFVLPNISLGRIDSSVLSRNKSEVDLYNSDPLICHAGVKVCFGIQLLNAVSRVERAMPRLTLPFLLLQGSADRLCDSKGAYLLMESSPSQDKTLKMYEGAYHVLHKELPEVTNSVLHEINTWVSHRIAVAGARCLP
Experimental: as §1
MAGL activity measurement was based on rate of hydrolysis of [^3H] 2-OG (glycerol labeled) as substrate. Briefly, cerebella cytosol (CRBcyt) fractions, previously obtained from adult WISTAR rats, were diluted to appropriate assay protein concentrations in Tris-HCl buffer (10 mM, pH 7.2) containing 1 mM EDTA, and were added to assay tubes containing test compound. Blanks contained assay buffer instead of cytosol samples were used as control. […] The final assay contained 0.125% w v^−1 fatty acid-free BSA. After the incubation phase, reactions were stopped by adding 400 μL chloroform:methanol (1/1 v v^−1), vortex mixing the tubes two times and placing them on ice. Phases were separated by centrifugation and 200 μL aliquots of the methanol/buffer phase were taken and tritium content assayed by liquid scintillation spectroscopy with quench correction.

[5] = biological target: T3, FAAH (Mus musculus, UniProt O08914); test: In vivo FAAH inhibition after oral dosing, remaining activity in liver homogenate (LVh, peripheral tissue); design: species or system NMRI mice; settings: 3 mg/kg oral, 8 h; for FAAH LVh 3 mg · kg · 8 h: in vivo, mouse liver, remaining enzymatic activity; for In Vivo LVh 3 mg · kg · 8 h (remaining FAAH activity): liver homogenate, low value = strong inhibitor
T3 construct: A fragment of liver, left lung lobe and brain without cerebellum were removed; from tissue; host or cells: male NMRI mice; brain (without cerebellum) and liver homogenates
T3 sequence (O08914 1-579): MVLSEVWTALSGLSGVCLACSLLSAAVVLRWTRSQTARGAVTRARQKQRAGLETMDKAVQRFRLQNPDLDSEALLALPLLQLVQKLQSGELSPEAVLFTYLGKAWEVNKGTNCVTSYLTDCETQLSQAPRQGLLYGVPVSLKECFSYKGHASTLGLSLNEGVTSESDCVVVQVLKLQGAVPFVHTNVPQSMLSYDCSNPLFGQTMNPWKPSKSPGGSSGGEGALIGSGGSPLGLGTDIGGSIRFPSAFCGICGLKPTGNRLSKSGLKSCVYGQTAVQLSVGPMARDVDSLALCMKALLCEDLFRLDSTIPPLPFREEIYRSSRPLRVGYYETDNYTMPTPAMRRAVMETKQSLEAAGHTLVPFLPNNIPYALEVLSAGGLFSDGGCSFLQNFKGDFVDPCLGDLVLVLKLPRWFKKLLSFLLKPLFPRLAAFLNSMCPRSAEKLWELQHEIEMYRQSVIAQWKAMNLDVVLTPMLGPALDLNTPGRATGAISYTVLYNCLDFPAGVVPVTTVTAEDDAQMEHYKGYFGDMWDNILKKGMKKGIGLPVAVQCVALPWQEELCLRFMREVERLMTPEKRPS
In short: (§3)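 Male NMRI mice, fasted overnight, got 30 or 3 mg/kg compound orally (0.5% CMC suspension or water) and were compared with vehicle controls. Brain (no cerebellum) and liver homogenates were incubated with 2 μM AEA plus 5 nM 3H-AEA at 37 °C, 10 min for brain and 7 min for liver. Remaining FAAH activity is % of vehicle after blank subtraction.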

[6] = biological target: T3, FAAH; test: In vivo FAAH inhibition after oral dosing, remaining activity in brain homogenate (BRh, central nervous tissue); design: species or system NMRI mice; settings: 3 mg/kg oral, 8 h; for In Vivo BRh 3 mg · kg · 8 h (remaining FAAH activity): brain homogenate, low value = strong inhibitor; for FAAH BRh 3 mg · kg · 8 h: in vivo, mouse brain, remaining enzymatic activity
In short: as §3

[7] = rat brain membranes, 100 = no measurable inhibition

## COc1ccc(N(C)C(=O)n2cnc(-c3ccc4ccccc4c3)c2)cc1 [Compound 16, N-(4-methoxyphenyl)-N-methyl-4-(naphthalen-2-yl)-1H-imidazole-1-carboxamide]
[1]; 10 uM compound, rat brain membranes, 100 = no measurable inhibition
  FAAH 10 uM: 24.7 % of control
[1]; 10 uM test compound
  In Vitro FAAH activity, 10 uM: 24.7 % of control
[2]
  CE Mou LVms 10 uM 10 min: 95.4 % of control
[3]
  CE Rat LVms 10 uM 10 min: 87.5 % of control

## O=C(NCCCCc1ccccc1)n1nnc2ccccc21 [Compound 85, N-(4-phenylbutyl)-1H-benzo[d][1,2,3]triazole-1-carboxamide]
[1]; [7]
  FAAH 100 nM: 0.1 % of control
[1]
  In Vitro FAAH activity, 100 nM: 0.1 % of control
[2]
  CE Mou LVms 10 uM 10 min: 31 % of control
[3]
  CE Rat LVms 10 uM 10 min: 33 % of control

## CN(C(=O)n1nnc2cc(Br)ccc21)C1CCCCC1 [Compound 97, 5-bromo-N-cyclohexyl-N-methyl-1H-benzo[d][1,2,3]triazole-1-carboxamide]
[1]; [7]
  FAAH 100 nM: 0 % of control
[1]
  In Vitro FAAH activity, 100 nM: 0 % of control
[2]
  CE Mou LVms 10 uM 10 min: 50.7 % of control
[3]
  CE Rat LVms 10 uM 10 min: 41.1 % of control

## CN(C(=O)n1cnc(-c2ccc3oc(=O)[nH]c3c2)c1)C1CCCC1 [Compound 564, N-cyclopentyl-N-methyl-4-(2-oxo-2,3-dihydrobenzo[d]oxazol-5-yl)-1H-imidazole-1-carboxamide]
[4]
  MAGL Rat CRBcyto 12.5 uM 8 min: 91.6 % of control
[2]
  CE Mou LVms 10 uM 10 min: 87.4 % of control
[3]
  CE Rat LVms 10 uM 10 min: 96.1 % of control
[5]
  FAAH LVh 3 mg · kg · 8 h: 2.3 % of control
  In Vivo LVh 3 mg · kg · 8 h (remaining FAAH activity): 2.3 % of control
[6]
  In Vivo BRh 3 mg · kg · 8 h (remaining FAAH activity): 37.6 % of control
  FAAH BRh 3 mg · kg · 8 h: 37.6 % of control

## CN(C(=O)n1cnc(-c2ccc(S(C)(=O)=O)cc2)c1)C1CCN(Cc2ccccc2)CC1 [Compound 567, N-(1-benzylpiperidin-4-yl)-N-methyl-4-(4-(methylsulfonyl)phenyl)-1H-imidazole-1-carboxamide]
[4]
  MAGL Rat CRBcyto 12.5 uM 8 min: 94.2 % of control
[2]
  CE Mou LVms 10 uM 10 min: 88.6 % of control
[3]
  CE Rat LVms 10 uM 10 min: 97.8 % of control
[5]
  FAAH LVh 3 mg · kg · 8 h: 6.3 % of control
  In Vivo LVh 3 mg · kg · 8 h (remaining FAAH activity): 6.3 % of control
[6]
  In Vivo BRh 3 mg · kg · 8 h (remaining FAAH activity): 87.8 % of control
  FAAH BRh 3 mg · kg · 8 h: 87.8 % of control
